Test results: patent US20230203043A1, “NOVEL IMIDAZOPYRAZINE DERIVATIVES” (Hoffmann-La Roche Inc., priority 2020, published 2023)
Counter-ions that a name gives are not always drawn.

Test system: Acinetobacter baumannii ATCC17961
Experiment: Antimicrobial susceptibility testing: 90% growth inhibitory concentration (IC90) determination in Iso-Sensitest broth, OD600 growth
Type: cell-based
Conditions: Acinetobacter baumannii, ATCC17961, 16 h, read-out: A. baumannii ATCC 17961 IC90 (uM), strain ATCC 17961, OD600 growth over 16 h
Outline: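 Growth inhibition is calculated during the logarithmic phase from OD600 readings taken every 20 minutes across 16 h at 35±2° C. Bacteria at ~5×10^(5) CFU/ml face twofold dilution series (e.g. 50 to 0.097 μM final).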

Row | SMILES | IC90 [µM]
1 | N#CCn1cc(-c2cnc3c(Nc4ccc(C(=O)N5CCN(C(=O)C6CCNCC6)CC5)c(Cl)c4)nccn23)c(C(F)(F)F)n1 [Example 366, 2-[4-[8-[3-chloro-4-[4-(piperidine-4-carbonyl)piperazine-1-carbonyl]anilino]imidazo[1,2-a]pyrazin-3-yl]-3-(trifluoromethyl)pyrazol-1-yl]acetonitrile formate] | 0.296
2 | Cc1cc(Nc2nccn3c(-c4cn(CC#N)nc4C(F)(F)F)cnc23)ccc1C(=O)NCCCNC(=O)[C@@H]1C[C@@H](O)CN1 [Example 367, (2S,4R)-N-[3-[[4-[[3-[1-(cyanomethyl)-3-(trifluoromethyl)pyrazol-4-yl]imidazo[1,2-a]pyrazin-8-yl]amino]-2-methylbenzoyl]amino]propyl]-4-hydroxypyrrolidine-2-carboxamide formate] | 0.468
3 | Cc1cc(Nc2nccn3c(-c4cn(CC#N)nc4C(F)(F)F)cnc23)ccc1C(=O)NCCNC(=O)[C@@H]1C[C@@H](O)CN1 [Example 375, (2S,4R)-N-[2-[[4-[[3-[1-(cyanomethyl)-3-(trifluoromethyl)pyrazol-4-yl]imidazo[1,2-a]pyrazin-8-yl]amino]-2-methylbenzoyl]amino]ethyl]-4-hydroxypyrrolidine-2-carboxamide formate] | 0.338
4 | Cc1cc(Nc2nccn3c(-c4cn(CC#N)nc4C(F)(F)F)cnc23)ccc1C(=O)N1CCN(C(=O)N[C@H]2CNC[C@@H]2O)CC1 [Example 376, 4-[4-[[3-[1-(cyanomethyl)-3-(trifluoromethyl)pyrazol-4-yl]imidazo[1,2-a]pyrazin-8-yl]amino]-2-methylbenzoyl]-N-[(3S,4S)-4-hydroxypyrrolidin-3-yl]piperazine-1-carboxamide formate] | 0.43
5 | Cc1cc(Nc2nccn3c(-c4cn(CC#N)nc4C(F)(F)F)cnc23)ccc1C(=O)N1CCN(C(=O)[C@@H]2CCNC[C@H]2O)CC1 [Example 380, formic acid; 2-[4-[8-[4-[4-[(3S,4R)-3-hydroxypiperidine-4-carbonyl]piperazine-1-carbonyl]-3-methylanilino]imidazo[1,2-a]pyrazin-3-yl]-3-(trifluoromethyl)pyrazol-1-yl]acetonitrile] | 0.623
6 | Cc1cc(Nc2nccn3c(-c4cn(CC#N)nc4C(F)(F)F)cnc23)ccc1C(=O)N1CCN(C(=O)[C@H]2CCNC[C@@H]2O)CC1 [Example 382, formic acid; 2-[4-[8-[4-[4-[(3R,4S)-3-hydroxypiperidine-4-carbonyl]piperazine-1-carbonyl]-3-methylanilino]imidazo[1,2-a]pyrazin-3-yl]-3-(trifluoromethyl)pyrazol-1-yl]acetonitrile] | 0.749

Same assay, conditions: Acinetobacter baumannii, ATCC17961, 16 h, strain ATCC 17961, OD600 growth over 16 h, read-out: A. baumannii ATCC 17961 IC90

Row | SMILES | IC90 [µM]
7 | CCc1cc(Nc2nccn3c(-c4c[nH]nc4C(F)(F)F)cnc23)ccc1C(=O)N1CCN(C(=O)C2(O)CCNCC2)CC1 [Example 355, [2-ethyl-4-[[3-[3-(trifluoromethyl)-1H-pyrazol-4-yl]imidazo[1,2-a]pyrazin-8-yl]amino]phenyl]-[4-(4-hydroxypiperidine-4-carbonyl)piperazin-1-yl]methanone hydrochloride] | 1.3
8 | CNC(=O)c1ccc(Nc2nccn3c(-c4cn(CC(N)=O)nc4C(F)(F)F)cnc23)cc1Cl [Example 357, 4-[[3-[1-(2-amino-2-oxoethyl)-3-(trifluoromethyl)pyrazol-4-yl]imidazo[1,2-a]pyrazin-8-yl]amino]-2-chloro-N-methylbenzamide] | 1.59
9 | CNC(=O)c1ccc(Nc2nccn3c(-c4cn(CCC#N)nc4C(F)(F)F)cnc23)cc1Cl [Example 358, 2-chloro-4-[[3-[1-(2-cyanoethyl)-3-(trifluoromethyl)pyrazol-4-yl]imidazo[1,2-a]pyrazin-8-yl]amino]-N-methylbenzamide] | 0.189
10 | CNC(=O)c1ccc(Nc2nccn3c(-c4cn(CCCC#N)nc4C(F)(F)F)cnc23)cc1Cl [Example 359, 2-chloro-4-[[3-[1-(3-cyanopropyl)-3-(trifluoromethyl)pyrazol-4-yl]imidazo[1,2-a]pyrazin-8-yl]amino]-N-methylbenzamide] | 0.303
11 | Cc1cc(Nc2nccn3c(-c4c[nH]nc4C(F)(F)F)cnc23)ccc1C(=O)NCCOCCN [Example 360, N-[2-(2-aminoethoxy)ethyl]-2-methyl-4-[[3-[3-(trifluoromethyl)-1H-pyrazol-4-yl]imidazo[1,2-a]pyrazin-8-yl]amino]benzamide hydrochloride] | 0.257

Now from value to compound:

Row | IC90 [µM] | SMILES
12 | 0.267 | NCCOCCNC(=O)c1ccc(Nc2nccn3c(-c4c[nH]nc4C(F)(F)F)cnc23)cc1Cl [Example 361, N-[2-(2-aminoethoxy)ethyl]-2-chloro-4-[[3-[3-(trifluoromethyl)-1H-pyrazol-4-yl]imidazo[1,2-a]pyrazin-8-yl]amino]benzamide hydrochloride]
13 | 0.35 | NCCCCNC(=O)c1ccc(Nc2nccn3c(-c4c[nH]nc4C(F)(F)F)cnc23)cc1Cl [Example 362, N-(4-aminobutyl)-2-chloro-4-[[3-[3-(trifluoromethyl)-1H-pyrazol-4-yl]imidazo[1,2-a]pyrazin-8-yl]amino]benzamide]
14 | 0.738 | NCCNC(=O)c1ccc(Nc2nccn3c(-c4c[nH]nc4C(F)(F)F)cnc23)cc1Cl [Example 363, N-(2-aminoethyl)-2-chloro-4-[[3-[3-(trifluoromethyl)-1H-pyrazol-4-yl]imidazo[1,2-a]pyrazin-8-yl]amino]benzamide]
15 | 1.13 | NCCCNC(=O)c1ccc(Nc2nccn3c(-c4c[nH]nc4C(F)(F)F)cnc23)cc1Cl [Example 364, N-(3-aminopropyl)-2-chloro-4-[[3-[3-(trifluoromethyl)-1H-pyrazol-4-yl]imidazo[1,2-a]pyrazin-8-yl]amino]benzamide]
16 | 1.4 | CCc1cc(Nc2nccn3c(-c4c[nH]nc4C(F)(F)F)cnc23)ccc1C(=O)NCCCN [Example 365, N-(3-aminopropyl)-2-ethyl-4-[[3-[3-(trifluoromethyl)-1H-pyrazol-4-yl]imidazo[1,2-a]pyrazin-8-yl]amino]benzamide hydrochloride]
17 | 0.177 | O=C(NC1CC(NC(=O)[C@@H]2C[C@@H](O)CN2)C1)c1ccc(Nc2nccn3c(-c4c[nH]nc4C(F)(F)F)cnc23)cc1Cl (stereo partly drawn) [Example 370, (2S,4R)-N-[3-[[2-chloro-4-[[3-[3-(trifluoromethyl)-1H-pyrazol-4-yl]imidazo[1,2-a]pyrazin-8-yl]amino]benzoyl]amino]cyclobutyl]-4-hydroxypyrrolidine-2-carboxamide]
18 | 0.309 | O=C(NC1CN(C(=O)[C@@H]2C[C@@H](O)CN2)C1)c1ccc(Nc2nccn3c(-c4c[nH]nc4C(F)(F)F)cnc23)cc1Cl [Example 371, 2-chloro-N-[1-[(2S,4R)-4-hydroxypyrrolidine-2-carbonyl]azetidin-3-yl]-4-[[3-[3-(trifluoromethyl)-1H-pyrazol-4-yl]imidazo[1,2-a]pyrazin-8-yl]amino]benzamide]
19 | 0.957 | CCc1cc(Nc2nccn3c(-c4c[nH]nc4C(F)(F)F)cnc23)ccc1C(=O)N1CCC(CN)CC1 [Example 372, [4-(aminomethyl)piperidin-1-yl]-[2-ethyl-4-[[3-[3-(trifluoromethyl)-1H-pyrazol-4-yl]imidazo[1,2-a]pyrazin-8-yl]amino]phenyl]methanone hydrochloride]
20 | 0.237 | O=C(NC1CCC(NC(=O)[C@@H]2C[C@@H](O)CN2)CC1)c1ccc(Nc2nccn3c(-c4c[nH]nc4C(F)(F)F)cnc23)cc1Cl (stereo partly drawn) [Example 374, (2S,4R)-N-[4-[[2-chloro-4-[[3-[3-(trifluoromethyl)-1H-pyrazol-4-yl]imidazo[1,2-a]pyrazin-8-yl]amino]benzoyl]amino]cyclohexyl]-4-hydroxypyrrolidine-2-carboxamide]
21 | 0.562 | O=C(N[C@H]1CCNC1)c1ccc(Nc2nccn3c(-c4c[nH]nc4C(F)(F)F)cnc23)cc1Cl [Example 378, 2-chloro-N-[(3S)-pyrrolidin-3-yl]-4-[[3-[3-(trifluoromethyl)-1H-pyrazol-4-yl]imidazo[1,2-a]pyrazin-8-yl]amino]benzamide]
22 | 0.576 | O=C(N[C@@H]1CCNC1)c1ccc(Nc2nccn3c(-c4c[nH]nc4C(F)(F)F)cnc23)cc1Cl [Example 379, 2-chloro-N-[(3R)-pyrrolidin-3-yl]-4-[[3-[3-(trifluoromethyl)-1H-pyrazol-4-yl]imidazo[1,2-a]pyrazin-8-yl]amino]benzamide]
23 | 0.63 | O=C(NC1CCN(C(=O)[C@@H]2C[C@@H](O)CN2)CC1)c1ccc(Nc2nccn3c(-c4c[nH]nc4C(F)(F)F)cnc23)cc1Cl [Example 381, 2-chloro-N-[1-[(2S,4R)-4-hydroxypyrrolidine-2-carbonyl]piperidin-4-yl]-4-[[3-[3-(trifluoromethyl)-1H-pyrazol-4-yl]imidazo[1,2-a]pyrazin-8-yl]amino]benzamide]
24 | 0.969 | NC1CCC(NC(=O)c2ccc(Nc3nccn4c(-c5c[nH]nc5C(F)(F)F)cnc34)cc2Cl)CC1 (centres unmarked) [Example 385, N-(4-aminocyclohexyl)-2-chloro-4-[[3-[3-(trifluoromethyl)-1H-pyrazol-4-yl]imidazo[1,2-a]pyrazin-8-yl]amino]benzamide]
25 | 0.337 | CNC(=O)c1ccc(Nc2nccn3c(-c4c[nH]nc4C(F)(F)F)cnc23)cc1Cl [Example 388, 2-chloro-N-methyl-4-[[3-[3-(trifluoromethyl)-1H-pyrazol-4-yl]imidazo[1,2-a]pyrazin-8-yl]amino]benzamide]

Same assay, conditions: strain ATCC 17961, OD600 growth over 16 h, read-out: A. baumannii ATCC 17961 IC90

Row | IC90 [µM] | SMILES
26 | 0.833 | NC1CC(NC(=O)c2ccc(Nc3nccn4c(-c5c[nH]nc5C(F)(F)F)cnc34)cc2Cl)C1 (centres unmarked) [Example 384, N-(3-aminocyclobutyl)-2-chloro-4-[[3-[3-(trifluoromethyl)-1H-pyrazol-4-yl]imidazo[1,2-a]pyrazin-8-yl]amino]benzamide]
